Results reported in PubChem BioAssay (NCI).
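Method: 48-hour compound exposure of cells in 96-well plates, five concentrations, linear interpolation of endpoints. The concentration for 50% growth inhibition is given as GI50. TGI marks complete inhibition of growth.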

Tests used:
Assay in all cases: DTP human tumour cell line panel, 48 h
786-0 renal = tested on: 786-0 renal
A498 renal = tested on: A498 renal
A549 NSCLC = tested on: A549 NSCLC
ACHN renal = tested on: ACHN renal
BT-549 breast = tested on: BT-549 breast
CAKI-1 renal = tested on: CAKI-1 renal
CCRF-CEM leukemia = tested on: CCRF-CEM leukemia
COLO 205 colon = tested on: COLO 205 colon
DU-145 prostate = tested on: DU-145 prostate
EKVX NSCLC = tested on: EKVX NSCLC
HCC-2998 colon = tested on: HCC-2998 colon
HCT-116 colon = tested on: HCT-116 colon
HCT-15 colon = tested on: HCT-15 colon
HL-60(TB) leukemia = tested on: HL-60(TB) leukemia
HOP-62 NSCLC = tested on: HOP-62 NSCLC
HOP-92 NSCLC = tested on: HOP-92 NSCLC
HS 578T breast = tested on: HS 578T breast
HT29 colon = tested on: HT29 colon
IGROV1 ovarian = tested on: IGROV1 ovarian
K-562 leukemia = tested on: K-562 leukemia
KM12 colon = tested on: KM12 colon
LOX IMVI melanoma = tested on: LOX IMVI melanoma
M14 melanoma = tested on: M14 melanoma
MALME-3M melanoma = tested on: MALME-3M melanoma
MCF7 breast = tested on: MCF7 breast
MDA-MB-231 breast = tested on: MDA-MB-231 breast
MDA-MB-435 = tested on: MDA-MB-435
MOLT-4 leukemia = tested on: MOLT-4 leukemia
NCI-H226 lung = tested on: NCI-H226 lung
NCI-H23 lung = tested on: NCI-H23 lung
NCI-H522 lung = tested on: NCI-H522 lung
NCI/ADR-RES ovarian = tested on: NCI/ADR-RES ovarian
OVCAR-3 ovarian = tested on: OVCAR-3 ovarian
OVCAR-4 ovarian = tested on: OVCAR-4 ovarian
OVCAR-5 ovarian = tested on: OVCAR-5 ovarian
OVCAR-8 ovarian = tested on: OVCAR-8 ovarian
PC-3 prostate = tested on: PC-3 prostate
RPMI-8226 leukemia = tested on: RPMI-8226 leukemia
SF-268 CNS = tested on: SF-268 CNS
SF-295 CNS = tested on: SF-295 CNS
SF-539 CNS = tested on: SF-539 CNS
SK-MEL-2 melanoma = tested on: SK-MEL-2 melanoma
SK-MEL-28 melanoma = tested on: SK-MEL-28 melanoma
SK-MEL-5 melanoma = tested on: SK-MEL-5 melanoma
SK-OV-3 ovarian = tested on: SK-OV-3 ovarian
SN12C renal = tested on: SN12C renal
SNB-19 CNS = tested on: SNB-19 CNS
SNB-75 CNS = tested on: SNB-75 CNS
T-47D breast = tested on: T-47D breast
TK-10 renal = tested on: TK-10 renal
U251 CNS = tested on: U251 CNS
UACC-257 melanoma = tested on: UACC-257 melanoma
UACC-62 melanoma = tested on: UACC-62 melanoma
UO-31 renal = tested on: UO-31 renal

`COc1cc2c3c(n(CCCNC4=NCCS4)c(=O)c2cc1OC)-c1cc2c(cc1C3=O)OCO2` was tested, and the GI50 (786-0 renal) was < 10 nM, the TGI (786-0 renal) was 37.1 nM and the GI50 (A498 renal) was 1520 nM. The TGI (A498 renal) was 7680 nM, the GI50 (A549 NSCLC) was < 10 nM and the TGI (A549 NSCLC) was 1330 nM. For the same compound, the GI50 (ACHN renal) was < 10 nM, the TGI (ACHN renal) was 135 nM and the GI50 (BT-549 breast) was 1730 nM. The TGI (BT-549 breast) was 9300 nM, the GI50 (CAKI-1 renal) was < 10 nM and the TGI (CAKI-1 renal) was 749 nM. For the same compound, the GI50 (CCRF-CEM leukemia) was < 10 nM, the TGI (COLO 205 colon) was 4090 nM and the GI50 (DU-145 prostate) was < 10 nM. The TGI (DU-145 prostate) was 1310 nM, the GI50 (EKVX NSCLC) was 1790 nM and the TGI (EKVX NSCLC) was 8800 nM. For the same compound, the GI50 (HCC-2998 colon) was < 10 nM, the GI50 (HCT-116 colon) was < 10 nM and the TGI (HCT-116 colon) was 127 nM. For the same compound, the GI50 (HCT-15 colon) was 823 nM, the TGI (HCT-15 colon) was 3670 nM and the GI50 (HL-60(TB) leukemia) was 142 nM. The GI50 (HOP-62 NSCLC) was < 10 nM, the TGI (HOP-92 NSCLC) was 1950 nM and the GI50 (HS 578T breast) was 1400 nM. The TGI (HS 578T breast) was 3850 nM, the GI50 (HT29 colon) was < 34.7 nM and the TGI (HT29 colon) was 756 nM. The GI50 (IGROV1 ovarian) was 197 nM, the TGI (IGROV1 ovarian) was > 100000 nM and the GI50 (K-562 leukemia) was < 10 nM. The TGI (K-562 leukemia) was 631 nM, the GI50 (KM12 colon) was 1110 nM and the TGI (KM12 colon) was 3110 nM. The GI50 (LOX IMVI melanoma) was < 10 nM, the TGI (LOX IMVI melanoma) was 232 nM and the GI50 (M14 melanoma) was < 10 nM. It also gave a TGI (M14 melanoma) of 201 nM, a GI50 (MALME-3M melanoma) of 1440 nM and a TGI (MALME-3M melanoma) of 5410 nM. The GI50 (MCF7 breast) was < 10 nM, the GI50 (MDA-MB-231 breast) was 465 nM and the TGI (MDA-MB-231 breast) was 1020 nM. For the same compound, the TGI (MDA-MB-435) was 1830 nM, the GI50 (MOLT-4 leukemia) was < 10 nM and the GI50 (NCI-H226 lung) was 45.6 nM. For the same compound, the TGI (NCI-H226 lung) was 913 nM, the GI50 (NCI-H23 lung) was < 12.3 nM and the TGI (NCI-H23 lung) was 128 nM. The GI50 (NCI-H522 lung) was 174 nM, the TGI (NCI-H522 lung) was > 56200 nM and the GI50 (NCI/ADR-RES ovarian) was < 18.3 nM. It also gave a TGI (NCI/ADR-RES ovarian) of 319 nM, a GI50 (OVCAR-3 ovarian) of 203 nM and a TGI (OVCAR-3 ovarian) of 2090 nM. It also gave a GI50 (OVCAR-4 ovarian) of 1820 nM, a TGI (OVCAR-4 ovarian) of 6100 nM and a GI50 (OVCAR-5 ovarian) of 668 nM. It also gave a TGI (OVCAR-5 ovarian) of 2080 nM, a TGI (OVCAR-8 ovarian) of 2110 nM and a GI50 (PC-3 prostate) of 722 nM. The TGI (PC-3 prostate) was 3510 nM, the GI50 (RPMI-8226 leukemia) was < 14.5 nM and the TGI (RPMI-8226 leukemia) was 296 nM. The GI50 (SF-268 CNS) was 188 nM, the TGI (SF-268 CNS) was 5190 nM and the GI50 (SF-295 CNS) was < 10 nM. For the same compound, the TGI (SF-295 CNS) was 1420 nM, the GI50 (SF-539 CNS) was < 12.2 nM and the TGI (SF-539 CNS) was 283 nM. The GI50 (SK-MEL-2 melanoma) was 9980 nM, the TGI (SK-MEL-2 melanoma) was > 80600 nM and the GI50 (SK-MEL-28 melanoma) was 1120 nM. For the same compound, the TGI (SK-MEL-28 melanoma) was 3210 nM, the GI50 (SK-MEL-5 melanoma) was 236 nM and the TGI (SK-MEL-5 melanoma) was 2230 nM. The TGI (SK-OV-3 ovarian) was 3180 nM, the GI50 (SN12C renal) was < 25.5 nM and the TGI (SN12C renal) was 408 nM. The GI50 (SNB-19 CNS) was 1030 nM, the TGI (SNB-19 CNS) was > 100000 nM and the TGI (SNB-75 CNS) was 1440 nM. For the same compound, the TGI (T-47D breast) was 2700 nM, the GI50 (TK-10 renal) was 4590 nM and the TGI (TK-10 renal) was 10600 nM. The GI50 (U251 CNS) was < 10 nM, the TGI (U251 CNS) was 197 nM and the GI50 (UACC-257 melanoma) was 1210 nM. For the same compound, the TGI (UACC-257 melanoma) was 5670 nM, the GI50 (UACC-62 melanoma) was 55.9 nM and the TGI (UACC-62 melanoma) was 1660 nM. For the same compound, the GI50 (UO-31 renal) was 147 nM and the TGI (UO-31 renal) was > 100000 nM.
